From PMC3271436 (Osteoarthritis and Cartilage, 2008)

Columns and labels:
Type in all cases: biochemical
[1] = target: T1, purified IGFBP-5 protease from human osteoarthritic joint fluid (complement 1s) (Homo sapiens, UniProt P09871); assay: IGFBP-5 cleavage by protease purified from joint fluid
T1 sequence (P09871 16-688): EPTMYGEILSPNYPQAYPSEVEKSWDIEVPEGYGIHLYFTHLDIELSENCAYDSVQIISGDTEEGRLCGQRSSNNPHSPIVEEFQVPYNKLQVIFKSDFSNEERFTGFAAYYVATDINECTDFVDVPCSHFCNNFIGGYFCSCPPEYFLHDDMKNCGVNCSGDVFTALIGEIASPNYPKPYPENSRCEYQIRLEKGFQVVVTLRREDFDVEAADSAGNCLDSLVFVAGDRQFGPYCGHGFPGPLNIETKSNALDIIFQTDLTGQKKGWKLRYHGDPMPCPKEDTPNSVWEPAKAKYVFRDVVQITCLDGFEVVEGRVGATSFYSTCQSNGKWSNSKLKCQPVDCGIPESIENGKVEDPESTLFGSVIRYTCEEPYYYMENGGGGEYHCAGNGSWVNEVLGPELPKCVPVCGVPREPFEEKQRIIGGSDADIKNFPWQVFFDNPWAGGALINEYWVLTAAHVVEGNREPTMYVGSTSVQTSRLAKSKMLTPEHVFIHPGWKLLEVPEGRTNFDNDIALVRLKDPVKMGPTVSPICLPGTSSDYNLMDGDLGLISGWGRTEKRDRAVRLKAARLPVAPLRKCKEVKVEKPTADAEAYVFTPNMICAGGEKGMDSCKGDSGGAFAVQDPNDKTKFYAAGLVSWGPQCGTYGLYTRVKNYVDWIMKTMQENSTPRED

[2] = target: T2, IGFBP-5 protease activity in human osteoarthritic joint fluid (Homo sapiens, UniProt P09871)
T2 sequence (P09871 16-688): T1 sequence (P09871 16-688)

[3] = target: T3, purified C1s (Calbiochem) (Homo sapiens, UniProt P09871); assay: C1s chromogenic assay with purified commercial C1s, substrate S-2765
T3 sequence (P09871 16-688): T1 sequence (P09871 16-688)

Structure (SMILES) | Purified Protease IC50 ([1]; protease purified through Con-A step, 118 ng IGFBP-5, 16 h at 37°C) | Human Joint Fluid IC50 ([2]; crude joint fluid, 118 ng IGFBP-5, 16 h at 37°C) | C1s inhibition in words [3] | IC50 [3] | IC50 [1] | activity in words against the purified joint fluid preparation ([1]; purified joint fluid preparation) | activity in words against IGFBP-5 protease activity in crude joint fluid ([2]; 0.1 to 360 uM)
c1cnc2c(c1)ccc1cccnc12 [1,10-phenanthroline] | No inhibition | No Inhibition | – | – | – | – | –
N=C(N)c1ccc2cc(OC(=O)c3ccc(N=C(N)N)cc3)ccc2c1 [FUT175] | – | – | potent C1s inhibitor | 70 nM | 1000 nM | most active | most active
